Experimental data as given in patent US10913750B2, “Tubulin-binding compounds, compositions and uses related thereto” (The Regents of the University of California, priority 2015, dated 2021).

Experiments:
[1] = target: T1, tubulin (Sus scrofa, UniProt P02554); experiment: In vitro tubulin polymerization assay (HTS-tubulin polymerization kit, Cytoskeleton); assay type: biochemical; conditions: 3 μM compound, fluorescence, 70 minutes at 37° C.
T1 construct: purchased Cytoskeleton Inc. BK011P
Experimental: 1.5 ul of 10× strength compound, 20 μl of tubulin solution and Triton X-100 at a final concentration of 0.01% were added to each well in a 384 well plate. The reactions were assembled on ice to prevent tubulin pre-polymerization. For kinetic measurements, microtubule polymerization was monitored by reading the fluorescence at 420 nm (due to the incorporation of a fluorescent reporter into microtubules as polymerization occurs) every ten seconds using a Tecan M1000 microplate reader (FIG. 6B). […] Fluorescence increased as polymerization occurred, due to the incorporation of 4′,6-diamidino-2-phenylindole. Fluorescence was monitored every minute for 70 minutes at 37° C.
Tubulin polymerization reactions were carried out according to the manufacturer (Cytoskeleton, BK011P) in the presence of 3 μM colchicine, MI-181, taxol or DMSO. Polymerization was monitored with a Tecan M1000 micro-plate reader at 420 nm for 70 minutes at 37° C. The results are depicted in FIG. 11.

[2] = tested on: M238; experiment: CellTiter-Glo cell viability, M238; assay type: cell-based
Experimental: (§1) To determine if MI-181 had broad anti-cancer activity, we treated a diverse panel of cancer cell lines including cervical adenocarcinoma (HeLa), breast adenocarcinoma (MCF7), melanoma (M233), osteosarcoma (U205), acute lymphoblastic leukemia (CCRF-CEM), non-small cell lung carcinoma (NCI-H460), and breast adenocarcinoma (MCF7) with MI-181 and determined its cell viability IC50 (FIGS. 13A and 13B). […] Therefore, the efficacy of MI-181 was analyzed in a panel of melanoma cell lines with defined genetic backgrounds including BRAF^V600E and NRAS^Q61L mutations and varied sensitivities to Vemurafenib (BRAF inhibitor) and Trametinib (MEK inhibitor), which are currently used to treat BRAF^V600E melanomas^43,44 (FIG. 10c). […] As a general trend BRAF^V600E cell lines were slightly more sensitive than NRAS^Q61L cell lines and MI-181 was effective in Vemurafenib and Trametinib resistant cell lines (FIG. 10c and Table 3). Finally, we tested the ability of MI-181 to inhibit melanoma colony formation using the M233 and M308 cell lines (both resistant to Vemurafenib). Indeed, MI-181 was a potent inhibitor of colony formation (percentage colony formation for 10 nM MI-181=0.2±0.1 and 0.8±0.7; for 10 nM colchicine=0.1±0.06 and 1.5±0.5; and for 10 nM Vemurafenib=94±7 and 102±5) (FIG. 10d). Thus, MI-181 is a potent inhibitor of melanoma cell lines. […]

[3] = tested on: M229; experiment: CellTiter-Glo cell viability, M229; assay type: cell-based
Experimental: as §1

[4] = tested on: M376; experiment: CellTiter-Glo cell viability, M376; assay type: cell-based
Experimental: as §1

[5] = tested on: M296; experiment: CellTiter-Glo cell viability, M296; assay type: cell-based
Experimental: as §1

[6] = tested on: M318; experiment: CellTiter-Glo cell viability, M318; assay type: cell-based
Experimental: as §1

[7] = tested on: M233; experiment: Melanoma colony formation, M233; assay type: cell-based; conditions: 10 nM, M233 (first value of pair)
Experimental: To determine if MI-181 had broad anti-cancer activity, we treated a diverse panel of cancer cell lines including cervical adenocarcinoma (HeLa), breast adenocarcinoma (MCF7), melanoma (M233), osteosarcoma (U205), acute lymphoblastic leukemia (CCRF-CEM), non-small cell lung carcinoma (NCI-H460), and breast adenocarcinoma (MCF7) with MI-181 and determined its cell viability IC50 (FIGS. 13A and 13B). […] Therefore, the efficacy of MI-181 was analyzed in a panel of melanoma cell lines with defined genetic backgrounds including BRAF^V600E and NRAS^Q61L mutations and varied sensitivities to Vemurafenib (BRAF inhibitor) and Trametinib (MEK inhibitor), which are currently used to treat BRAF^V600E melanomas^43,44 (FIG. 10c). […] As a general trend BRAF^V600E cell lines were slightly more sensitive than NRAS^Q61L cell lines and MI-181 was effective in Vemurafenib and Trametinib resistant cell lines (FIG. 10c and Table 3). Finally, we tested the ability of MI-181 to inhibit melanoma colony formation using the M233 and M308 cell lines (both resistant to Vemurafenib). Indeed, MI-181 was a potent inhibitor of colony formation (percentage colony formation for 10 nM MI-181=0.2±0.1 and 0.8±0.7; for 10 nM colchicine=0.1±0.06 and 1.5±0.5; and for 10 nM Vemurafenib=94±7 and 102±5) (FIG. 10d). Thus, MI-181 is a potent inhibitor of melanoma cell lines.

[8] = tested on: cells; experiment: Immunoblot analysis of synchronized cells and drug washout (mitotic arrest reversibility); assay type: cell-based
Experimental: Phospho-histone-H3-488 (Ser10) (p-H3-488, Cell Signaling), α-tubulin (Serotec), AurKB (BD Transduction), Anti-Centromere-Antibodies (ACA, Cortex Biochem), cyclin A and B (Santa Cruz Biotechnology), and SECURIN (Gene Tex). BubR1 and Bub1 were from Hongtao Yu. FITC-, Cy3- and Cy5-conjugated secondary antibodies were from Jackson Immuno Research.
Cells were synchronized in G1/S, released into the cell cycle in the presence of DMSO or MI-181, and cell extracts were prepared at several time points post-release. […] Additionally, the MI-182-induced mitotic arrest was reversible, as cells exited mitosis within 2 hours of drug washout (FIG. 9).

T1 sequence (P02554 whole entry): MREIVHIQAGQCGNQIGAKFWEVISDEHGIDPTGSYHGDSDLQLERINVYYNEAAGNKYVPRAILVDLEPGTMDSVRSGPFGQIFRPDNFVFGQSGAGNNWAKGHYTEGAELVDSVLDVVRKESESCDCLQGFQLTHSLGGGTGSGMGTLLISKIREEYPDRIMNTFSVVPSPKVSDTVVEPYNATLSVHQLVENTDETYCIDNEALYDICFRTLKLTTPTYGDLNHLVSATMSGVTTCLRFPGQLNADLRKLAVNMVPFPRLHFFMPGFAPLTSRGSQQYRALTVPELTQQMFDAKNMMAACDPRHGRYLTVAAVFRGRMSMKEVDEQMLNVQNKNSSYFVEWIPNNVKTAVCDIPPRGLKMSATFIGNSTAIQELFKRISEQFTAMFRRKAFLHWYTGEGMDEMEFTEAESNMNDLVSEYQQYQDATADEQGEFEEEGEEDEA
T1 sequence (P02550 whole entry partner): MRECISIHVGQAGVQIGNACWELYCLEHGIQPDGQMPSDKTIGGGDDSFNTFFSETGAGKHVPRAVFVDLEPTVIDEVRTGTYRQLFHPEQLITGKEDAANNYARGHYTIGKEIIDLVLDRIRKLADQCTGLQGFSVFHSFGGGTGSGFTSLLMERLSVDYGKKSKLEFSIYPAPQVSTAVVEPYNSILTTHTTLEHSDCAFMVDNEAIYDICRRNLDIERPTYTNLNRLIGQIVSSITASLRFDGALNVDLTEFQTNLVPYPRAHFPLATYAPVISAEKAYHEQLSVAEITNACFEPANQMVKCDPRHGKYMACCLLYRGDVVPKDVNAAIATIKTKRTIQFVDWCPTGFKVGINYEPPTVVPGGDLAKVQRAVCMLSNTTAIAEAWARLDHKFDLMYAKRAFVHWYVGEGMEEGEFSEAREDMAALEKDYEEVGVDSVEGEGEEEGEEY

## Cc1cc2nc(/C=C/c3cccnc3)sc2cc1C [MI-181]
[1]
  inhibition of microtubule (tubulin) polymerization in vitro: inhibits tubulin polymerization
[2]
  IC50: 30.5 nM
[3]
  IC50: 36.7 nM
[4]
  IC50: 39.7 nM
[5]
  IC50: 36.7 nM
[6]
  IC50: 54.9 nM
[7]
  percentage colony formation: 0.2±0.1
[8]; FIG. 9
  reversibility of induced mitotic arrest: reversible
[8]; cells synchronized in G1/S, released in presence of drug
  cell cycle state by immunoblot: arrested in mitosis (p-H3 positive), activated the SAC (BubR1 remained phosphorylated) and stabilized cyclin B while degrading cyclin A
[8]; drug washout
  time to exit mitosis after drug washout: ≤ 2 h
